From US9034865B2, “Pyrido [4,3-B] indole and pyrido [3,4-B] indole derivatives and methods of use” (Medivation Technologies, Inc., priority 2010, dated 2015)

What was measured:
[1] = molecular target: T1, human recombinant histamine H1 receptor (Homo sapiens, UniProt P35367); experiment: Histamine H1 radioligand binding ([3H]Pyrilamine); details: compound at 1 μM; 1.2 nM [3H]Pyrilamine; read-out: Binding data (Percentage inhibition) Histamine H1 (1 μM)
T1 construct: expressed in transfected cells; host or cells: CHO-K1
T1 sequence (P35367 whole entry): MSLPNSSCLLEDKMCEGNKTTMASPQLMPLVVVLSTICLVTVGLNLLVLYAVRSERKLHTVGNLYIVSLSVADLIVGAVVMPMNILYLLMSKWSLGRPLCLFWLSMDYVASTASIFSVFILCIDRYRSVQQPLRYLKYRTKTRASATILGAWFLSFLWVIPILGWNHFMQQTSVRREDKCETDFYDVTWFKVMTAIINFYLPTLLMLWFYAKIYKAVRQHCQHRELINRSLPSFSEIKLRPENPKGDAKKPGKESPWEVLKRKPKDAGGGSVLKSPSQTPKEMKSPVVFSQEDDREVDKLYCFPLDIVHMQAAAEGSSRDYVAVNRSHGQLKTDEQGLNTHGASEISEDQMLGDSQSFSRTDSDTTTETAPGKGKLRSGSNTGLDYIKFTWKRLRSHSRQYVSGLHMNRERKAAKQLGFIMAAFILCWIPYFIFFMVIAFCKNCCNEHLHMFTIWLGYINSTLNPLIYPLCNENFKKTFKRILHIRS
Procedure: To evaluate in radioligand binding assays the activity of compounds of the invention, human recombinant histamine H1 receptor expressed in Chinese hamster ovary (CHO) K1 cells (De Backer, M. et al, Biochem. Biophys. Res. Comm. 197(3):1601, 1993) in a modified Tris-HCl buffer (50 mM Tris-HCl, pH 7.4, 2 mM MgCl2, 100 mM NaCl, 250 mM Sucrose) was used. Compounds of the invention were incubated with 1.2 nM [^3H]Pyrilamine for 180 min at 25° C. Non-specific binding was estimated in the presence of 1 μM Pyrilamine. Receptor proteins were filtered and washed, the filters were then counted to determine [^3H]Pyrilamine specifically bound. Compounds were screened at 1 μM or lower, using 1% DMSO as vehicle. Biochemical assay results are presented as the percent inhibition of specific binding in Table 2.

[2] = molecular target: T2, human recombinant serotonin (5-Hydroxytryptamine) 5-HT7 receptor (Homo sapiens, UniProt P34969); experiment: Serotonin 5-HT7 radioligand binding ([3H]LSD); details: compound at 0.1 μM; read-out: Percentage inhibition of ligand binding, Serotonin (0.1 μM) 5-HT7
T2 construct: expressed in transfected cells; host or cells: CHO
T2 sequence (P34969 whole entry): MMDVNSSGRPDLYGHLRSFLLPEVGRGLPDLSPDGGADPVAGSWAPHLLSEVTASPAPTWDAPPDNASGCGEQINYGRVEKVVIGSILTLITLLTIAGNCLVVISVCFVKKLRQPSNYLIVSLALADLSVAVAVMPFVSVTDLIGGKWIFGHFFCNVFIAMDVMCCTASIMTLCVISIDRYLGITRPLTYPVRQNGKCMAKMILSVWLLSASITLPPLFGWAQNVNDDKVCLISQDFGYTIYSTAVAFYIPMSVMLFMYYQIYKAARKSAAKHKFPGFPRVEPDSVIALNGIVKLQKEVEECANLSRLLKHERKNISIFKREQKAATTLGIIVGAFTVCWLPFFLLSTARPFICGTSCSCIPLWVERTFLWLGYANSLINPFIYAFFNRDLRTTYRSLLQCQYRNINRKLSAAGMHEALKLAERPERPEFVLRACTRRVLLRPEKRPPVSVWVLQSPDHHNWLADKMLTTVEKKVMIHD
Procedure: To evaluate in radioligand binding assays the activity of compounds of the invention, human recombinant serotonin (5-Hydroxytryptamine) 5-HT7 receptor expressed in Chinese hamster ovary (CHO) cells (Roth, B. et al, J. Pharmacol. Exp. Ther. 268:1403, 1994; Shen, Y. et al, J. Biol. Chem. 268:18200, 1993) in a modified Tris-HCl buffer (50 mM Tris-HCl, pH 7.4, 10 mM MgCl2, 0.5 mM EDTA) was used. Compounds of invention were incubated with 5.5 nM [^3H] Lysergic acid diethylamide (LSD) for 2 h at 25° C. Non-specific binding was estimated in the presence of 10 μM Serotonin (5-HT). Receptor proteins were filtered and washed, the filters were then counted to determine [^3H]LSD specifically bound. Compounds were screened at 1 μM or lower, using 1% DMSO as vehicle. Biochemical assay results are presented as the percent inhibition of specific binding in Table 4.

[3] = molecular target: T3, human recombinant serotonin (5-Hydroxytryptamine) 5-HT2C receptor (Homo sapiens, UniProt P28335); experiment: Serotonin 5-HT2C radioligand binding ([3H]Mesulergine); details: compound at 0.1 μM; read-out: Percentage inhibition of ligand binding, Serotonin (0.1 μM) 5-HT2C
T3 construct: expressed in transfected cells; host or cells: CHO-K1
T3 sequence (P28335 33-458): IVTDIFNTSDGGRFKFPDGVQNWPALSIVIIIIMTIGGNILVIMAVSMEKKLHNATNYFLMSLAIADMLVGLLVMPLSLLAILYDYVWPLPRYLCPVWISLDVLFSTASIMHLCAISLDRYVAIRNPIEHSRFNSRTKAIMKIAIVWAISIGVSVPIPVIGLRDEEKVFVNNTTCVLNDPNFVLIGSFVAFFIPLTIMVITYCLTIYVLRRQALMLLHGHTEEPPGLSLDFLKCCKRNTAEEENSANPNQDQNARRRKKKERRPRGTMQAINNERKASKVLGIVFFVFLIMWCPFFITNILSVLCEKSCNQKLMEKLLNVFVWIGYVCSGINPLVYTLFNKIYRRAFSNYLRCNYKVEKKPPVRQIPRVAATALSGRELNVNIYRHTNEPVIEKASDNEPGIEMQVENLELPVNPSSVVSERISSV
Procedure: To evaluate in radioligand binding assays the activity of compounds of the invention, human recombinant serotonin (5-Hydroxytryptamine) 5-HT2C receptor expressed in Chinese hamster ovary (CHO) K1 cells (Wolf, W. et al, J. Neurochem. 69:1449, 1997) in a modified Tris-HCl buffer (50 mM Tris-HCl, pH 7.4, 0.1% Ascorbic Acid, 10 μM Pargyline) was used. Compounds of the invention were incubated with 1 nM [^3H]Mesulergine for 60 min at 25° C. Non-specific binding was estimated in the presence of 1 μM Mianserin. Receptor proteins were filtered and washed, the filters were then counted to determine [^3H]Mesulergine specifically bound. Compounds were screened at 1 μM or lower, using 1% DMSO as vehicle. Biochemical assay results are presented as the percent inhibition of specific binding in Table 4.

[4] = molecular target: T4, human recombinant serotonin (5-Hydroxytryptamine) 5-HT2A receptor (Homo sapiens, UniProt P28223); experiment: Serotonin 5-HT2A radioligand binding ([3H]Ketanserin); details: compound at 0.1 μM; read-out: Percentage inhibition of ligand binding, Serotonin (0.1 μM) 5-HT2A
T4 construct: expressed in transfected cells; host or cells: CHO-K1
T4 sequence (P28223 whole entry): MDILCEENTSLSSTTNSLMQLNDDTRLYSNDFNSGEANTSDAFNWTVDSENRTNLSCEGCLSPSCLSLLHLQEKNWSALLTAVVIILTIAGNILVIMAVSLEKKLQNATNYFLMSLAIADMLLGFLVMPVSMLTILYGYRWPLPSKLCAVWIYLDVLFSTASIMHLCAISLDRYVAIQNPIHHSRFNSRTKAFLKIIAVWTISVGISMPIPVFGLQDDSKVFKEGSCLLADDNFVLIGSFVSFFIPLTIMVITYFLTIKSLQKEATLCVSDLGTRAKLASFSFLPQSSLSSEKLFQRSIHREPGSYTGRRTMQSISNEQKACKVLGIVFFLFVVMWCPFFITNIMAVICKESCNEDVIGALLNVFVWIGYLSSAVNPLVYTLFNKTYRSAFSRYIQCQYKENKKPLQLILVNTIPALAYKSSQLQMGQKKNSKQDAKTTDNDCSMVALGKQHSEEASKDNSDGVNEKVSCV
Procedure: To evaluate in radioligand binding assays the activity of compounds of the invention, human recombinant serotonin (5-Hydroxytryptamine) 5-HT2A receptor expressed in Chinese hamster ovary (CHO) K1 cells (Bonhaus, D. et al, Br. J. Pharmacol. 115:622, 1995; Saucier, C. et al, J. Neurochem. 68:1998, 1997) in a 50 mM Tris-HCl buffer, pH 7.4, was used. Compounds of the invention were incubated with 0.5 nM [^3H]Ketanserin for 60 min at 25° C. Non-specific binding was estimated in the presence of 1 μM Mianserin. Receptor proteins were filtered and washed, the filters were then counted to determine [^3H]Ketanserin specifically bound. Compounds were screened at 1 μM or lower, using 1% DMSO as vehicle. Biochemical assay results are presented as the percent inhibition of specific binding in Table 4.

[5] = molecular target: T5, human recombinant dopamine D2L receptor (Homo sapiens, UniProt P14416); experiment: Dopamine D2L radioligand binding ([3H]Spiperone); details: compound at 1 μM; read-out: Percentage inhibition of ligand binding, Dopamine (1 μM) D2L
T5 construct: expressed in transfected cells; host or cells: CHO
T5 sequence (P14416 whole entry): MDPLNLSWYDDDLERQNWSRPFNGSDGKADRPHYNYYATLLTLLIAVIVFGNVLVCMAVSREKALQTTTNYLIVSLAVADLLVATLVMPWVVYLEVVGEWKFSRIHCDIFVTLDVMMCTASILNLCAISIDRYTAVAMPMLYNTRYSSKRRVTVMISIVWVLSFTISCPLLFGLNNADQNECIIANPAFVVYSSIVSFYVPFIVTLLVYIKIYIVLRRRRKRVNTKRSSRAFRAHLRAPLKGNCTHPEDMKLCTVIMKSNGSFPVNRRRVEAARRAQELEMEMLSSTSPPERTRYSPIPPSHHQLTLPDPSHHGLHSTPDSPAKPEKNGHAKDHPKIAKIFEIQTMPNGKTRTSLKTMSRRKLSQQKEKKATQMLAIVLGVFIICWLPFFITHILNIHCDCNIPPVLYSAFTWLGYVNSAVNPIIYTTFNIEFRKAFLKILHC
Procedure: To evaluate in radioligand binding assays the activity of compounds of the invention, human recombinant dopamine D2L receptor expressed in Chinese hamster ovary (CHO) cells (Grandy, D. et al, Proc. Natl. Acad. Sci. USA. 86:9762, 1989; Hayes, G. et al, Mol. Endocrinol. 6:920, 1992) in a modified Tris-HCl buffer (50 mM Tris-HCl, pH 7.4, 1.4 mM Ascorbic Acid, 0.001% BSA, 150 mM NaCl) was used. Compounds of the invention were incubated with 0.16 nM [^3H]Spiperonefor 120 min at 25° C. Non-specific binding was estimated in the presence of 10 μM Haloperidol. Receptor proteins were filtered and washed, the filters were then counted to determine [^3H]Spiperone specifically bound. Compounds were screened at 1 μM or lower, using 1% DMSO as vehicle. Biochemical assay results are presented as the percent inhibition of specific binding in Table 3.

[6] = molecular target: T6, human recombinant serotonin (5-Hydroxytryptamine) 5-HT6 receptor (Homo sapiens, UniProt P50406); experiment: Serotonin 5-HT6 radioligand binding ([3H]LSD); details: compound at 0.1 μM; read-out: Percentage inhibition of ligand binding, Serotonin (0.1 μM) 5-HT6
T6 construct: expressed in transfected cells; host or cells: HeLa
T6 sequence (P50406 whole entry): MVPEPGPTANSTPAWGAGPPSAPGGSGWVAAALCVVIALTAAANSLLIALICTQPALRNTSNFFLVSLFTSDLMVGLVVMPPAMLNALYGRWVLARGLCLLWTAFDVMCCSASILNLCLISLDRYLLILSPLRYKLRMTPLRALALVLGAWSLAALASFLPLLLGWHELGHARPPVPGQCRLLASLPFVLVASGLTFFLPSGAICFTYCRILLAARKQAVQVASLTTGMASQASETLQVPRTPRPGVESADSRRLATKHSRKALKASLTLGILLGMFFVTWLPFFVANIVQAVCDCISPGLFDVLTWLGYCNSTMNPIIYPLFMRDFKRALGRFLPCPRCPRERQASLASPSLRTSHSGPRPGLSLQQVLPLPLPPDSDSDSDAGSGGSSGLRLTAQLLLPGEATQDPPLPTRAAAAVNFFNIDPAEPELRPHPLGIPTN
Procedure: To evaluate in radioligand binding assays the activity of compounds of the invention, human recombinant serotonin (5-Hydroxytryptamine) 5-HT6 receptor expressed in human HeLa cells (Monsma, F. Jr. et al, Mol. Pharmacol. 43:320, 1993) in a modified Tris-HCl buffer (50 mM Tris-HCl, pH 7.4, 150 mM NaCl, 2 mM Ascorbic Acid, 0.001% BSA) was used. Compounds of the invention were incubated with 1.5 nM [3H]Lysergic acid diethylamide (LSD) for 120 min at 37° C. Non-specific binding was estimated in the presence of 5 μM Serotonin (5-HT). Receptor proteins were filtered and washed, the filters were then counted to determine [3H]LSD specifically bound. Compounds were screened at 1 μM or lower, using 1% DMSO as vehicle. Biochemical assay results are presented as the percent inhibition of specific binding in Table 4.

Cc1cc(CCc2ccc(C)nc2)c2[nH]c3c(c2c1)CN(C)CC3 [Compound 2]
inhibition at 1 µM [1]: 58%
inhibition at 0.1 µM [2]: 17%
inhibition at 0.1 µM [3]: 36%
inhibition at 0.1 µM [4]: 6%
inhibition at 1 µM [5]: 6%
inhibition at 0.1 µM [6]: 4%

CN1CCc2[nH]c3c(N(C)Cc4ccccc4)cccc3c2C1 [Compound 1, benzyl-methyl-(2-methyl-2,3,4,5-tetrahydro-1H-pyrido[4,3-b]indol-6-yl)-amine]
inhibition at 1 µM [1]: 6%
inhibition at 0.1 µM [2]: 9%
inhibition at 0.1 µM [3]: 55%
inhibition at 0.1 µM [4]: 73%
inhibition at 1 µM [5]: 21%
inhibition at 0.1 µM [6]: 44%

Cc1cc(C#Cc2ccncc2)c2[nH]c3c(c2c1)CN(C)CC3 [Compound 5]
inhibition at 1 µM [1]: 17%
inhibition at 0.1 µM [2]: 45%
inhibition at 0.1 µM [3]: 45%
inhibition at 0.1 µM [4]: 54%
inhibition at 1 µM [5]: 10%
inhibition at 0.1 µM [6]: 30%

CN1CCc2[nH]c3c(NCc4ccccc4)cccc3c2C1 [Compound 3]
inhibition at 1 µM [1]: 14%
inhibition at 0.1 µM [2]: 14%
inhibition at 0.1 µM [3]: 41%
inhibition at 0.1 µM [4]: 40%
inhibition at 1 µM [5]: 19%
inhibition at 0.1 µM [6]: 13%

Cc1cc(C#Cc2ccc(C)nc2)c2[nH]c3c(c2c1)CN(C)CC3 [Compound 6, 2,8-dimethyl-6-((6-methylpyridin-3-yl)ethynyl)-2,3,4,5-tetrahydro-1H-pyrido[4,3-b]indole]
inhibition at 1 µM [1]: 16%
inhibition at 0.1 µM [2]: 43%
inhibition at 0.1 µM [3]: 55%
inhibition at 0.1 µM [4]: 41%
inhibition at 1 µM [5]: 7%
inhibition at 0.1 µM [6]: 24%

CN1CCc2[nH]c3c(NCc4ccncc4)cccc3c2C1 [Compound 4]
inhibition at 1 µM [1]: 15%
inhibition at 0.1 µM [2]: -10%
inhibition at 0.1 µM [3]: 7%
inhibition at 0.1 µM [4]: -7%
inhibition at 1 µM [5]: 5%
inhibition at 0.1 µM [6]: 2%
